Experiments:
[1] = tested on: swimming-induced immobility in mice; experiment: Immobility induced by forced swimming; format: in vivo; conditions: last four minutes of six, oral, two administrations six hours and three hours before
Source text: One of the tests regarded as being most significant for assessing the activity of antidepressant substances is the forced swimming test in the mouse, which measures the changes in swimming-induced immobility which the various test substances produce (Borsini, F., Psychopharmacology, 94, 147, 1988). In these tests, the technique described by Persolt was adopted (Persolt, R. D., Eur. J. Pharmacol., 57, 201, 1979—Persolt, R. D., Arch. Int. Pharmacology, 229, 327, 1977) using ten […] per group. The animals were placed in beakers measuring 14 cm in height and approximately 12 cm in internal diameter which were filled with water (20-22° C.) up to 7.5 cm from the rim and then left there for six minutes. The duration of the immobility was calculated during the last four minutes. The mice were considered immobile when they performed only the movements necessary to keep themselves afloat on the water.
The substances tested were administered orally in two administrations six hours and three hours prior to the start of the experiment.

rats and mice = experiment: Toxicology tests, single-dose oral administration; format: in vivo; conditions: 2 g/kg carnitine mixture, 2 g/kg acetyl L-carnitine, 1 g/kg Hypericum extract (approx. 0.3% hypericin), 3 mg/kg hypericin, each alone
[2] = tested on: cerebral (cortex) concentrations of serotonin (5-HT) and hydroxy-indole-acetic acid (5-HIAA); experiment: Protective action against abnormal brain serotonin concentrations induced by fenfluramine; format: in vivo, (Sprague-Dawley) male rats; conditions: CC 400 mg/kg, AC 400 mg/kg, HE 300 mg/kg, HYP 1 mg/kg, two weeks after treatment
Source text: Since changes in concentration of cerebral biogenic amines regulate both excitatory and depressive emotional behaviour states, it was decided, in view of the above-mentioned action of hypericin and Hypericum extracts at catecholamine and particularly serotoninergic receptor level and on the reuptake of serotonin itself, to evaluate changes in cerebral concentrations of serotonin after treatment with Hypericum extracts, hypericin, carnitine mixture or acetyl L-carnitine, alone or in various combinations, in conjunction with treatment with a substance such as fenfluramine, the neurotoxicity of which manifests itself also through a reduction in brain serotonin concentrations. It is well known, in fact, that fenfluramine [N-ethyl-α-methyl-m-(trifluoro-methyl)phenethylamine] exerts a neurotoxic action on the brain, which is identifiable both histologically on the basis of derangement of the cerebral serotoninergic structures and through depletion of serotonin concentrations in the brain.
The tests were conducted using a group of (Sprague-Dawley) male rats which were administered fenfluramine orally at the dose of 5 mg/kg twice daily for 5 days consecutively, either alone or at the same time, and for the same period, as a carnitine mixture (400 mg/kg) (consisting in a combination of L-carnitine+acetyl L-carnitine+propionyl L-carnitine+isovaleryl L-carnitine present in the same weight ratio to one another), or acetyl L-carnitine (400 mg/kg), or Hypericum extract (with a 0.3% hypericin content−300 mg/kg), or hypericin (1 mg/kg), or various combinations of these products at the same doses.
Two weeks after treatment, the animals were sacrificed and the cerebral cortex isolated and subjected to measurement of the cerebral content both of serotonin (5-HT) and of hydroxy-indole-acetic acid (5-HIAA) according to the method described by Wise (Wise, C. D., Anal. Biochem., 18, 94, 1967) and modified by Ricaurte (Ricaurte, G. A., J. Pharmacol. Exptl. Ther., 261, 616, 1992).

[3] = tested on: aggression of isolated male mice; experiment: Isolation-induced aggression test; format: in vivo; conditions: treated eight hours and half an hour before test, observation 180 seconds, carnitine mixture or acetyl L-carnitine 400 mg/kg, Hypericum extract 300 mg/kg, hypericin 1 mg/kg
Source text: This method consists in making the mice aggressive by keeping them isolated for twenty-one days in a cage and in assessing, after treatment, the latency time needed to trigger the aggression of the isolated animal when another animal is put in the cage with it. Only animals with latency times of less than 10 seconds before attacking were included in the tests, and the time of attack was taken as the time the isolated animal bit or tried to bite the other animal introduced into the cage.
The observation time was 180 seconds and the experiment was started 30 minutes after administration of the products tested. All isolated animals were treated, both eight hours and half an hour before the test, with carnitine mixture (consisting of a combination of L-carnitine+acetyl L-carnitine+propionyl L-carnitine+isovaleryl L-carnitine in an equiponderal ratio to one another) (400 mg/kg), or with acetyl L-carnitine (400 mg/kg) or with Hypericum extract (300 mg/kg) or with hypericin (1 mg/kg), or with various combinations of these products.

[4] = tested on: motor exploration activity in the mouse; experiment: Exploratory activity in mice (Hole Board Test); format: in vivo
Method: This reduction is not related to sedation caused by the drug in the animal and can be offset using anxiolytic agents.
Using the technique described by Boissier (Boissier J. R., Physiol. Behav., 2. 447. 1967), tests (Hole Board Test) were conducted in order in a group of mice to ascertain whether the reduction in motor exploration activity induced in the animals by low-dose amphetamine (1 mg/kg i.p.) could be corrected by the oral administration of a carnitine mixture (consisting of a combination of L-carnitine+acetyl L-carnitine+propionyl L-carnitine+isovaleryl L carnitine in the same weight ratio to one another), or of acetyl L-carnitine, or Hypericum extract, or hypericin, or various combinations of these products.

[5] = tested on: mice descending from platform; experiment: Platform Test in mice; format: in vivo; conditions: ten animals per group, carnitine mixture or acetyl L-carnitine 400 mg/kg, Hypericum extract 300 mg/kg, hypericin 1 mg/kg; for % of mice descending from 5 cm: platform 5 cm from the ground; for % of mice descending from 9 cm: platform 9 cm from the ground
Method: Ten animals were used per group and the percentage of animals that managed to descend from the platform was calculated. […] It was modified even more by the administration of a combination of these products plus the carnitine mixture (L-carnitine+acetyl L-carnitine+propionyl L-carnitine+isovaleryl L-carnitine present in the same weight ratio to one another, making a total dose of 400 mg/kg) or acetyl L-carnitine 400 mg/kg, neither of which modifies the animals' behaviour when administered alone.

[6] = product alone, oral, 5 days, FE 5 mg/kg twice daily
[7] = together with fenfluramine (FE) 5 mg/kg oral twice daily for 5 days
[8] = oral treatment together with Amphetamine 1 mg/kg i.p., 30 minutes after amphetamine, CC 400 mg/kg, AC 400 mg/kg, HE 300 mg/kg, HYP 1 mg/kg

Row | Compound | Immobility time [1] | toxic effects or mortality (rats and mice) | Cerebral (cortex) concentrations 5-HIAA [2, 6] [ng/mg tissue] | Cerebral (cortex) concentrations 5-HT [2, 6] [ng/mg tissue] | Cerebral (cortex) concentrations 5-HIAA [2, 7] [ng/mg tissue] | Cerebral (cortex) concentrations 5-HT [2, 7] [ng/mg tissue] | Latency time of attack [3] [s] | Motor exploration activity, variations compared to controls [4, 8] | % of mice descending from 5 cm [5] [%] | % of mice descending from 9 cm [5] [%] | Motor exploration activity, variations compared to controls ([4]; Amphetamine 1 mg/kg i.p. alone, 30 minutes after administration) | Motor exploration activity, variations compared to controls ([4]; Amphetamine 5 mg/kg i.p. alone, 30 minutes after administration)
1 | CC(=O)O[C@H](CC(=O)[O-])C[N+](C)(C)C [Acetyl L-carnitine, acetyl L-carnitine] | 204 ± 8 | lack of toxic effects or mortality | 0.28 ± 0.012 | 0.35 ± 0.020 | 0.15 ± 0.019 | 0.18 ± 0.011 | 14 ± 3 | −48 | 70 | 0 | – | –
2 | CC(N)Cc1ccccc1 (stereo not drawn) [Amphetamine, amphetamine] | – | – | – | – | – | – | – | – | – | – | −45 | +55
3 | CCNC(C)Cc1cccc(C(F)(F)F)c1 (stereo not drawn) [FE, N-ethyl-α-methyl-m-(trifluoro-methyl)phenethylamine] | – | – | 0.14 ± 0.011 | 0.17 ± 0.010 | – | – | – | – | – | – | – | –
4 | Cc1cc(O)c2c(=O)c3c(O)cc(O)c4c5c(O)cc(O)c6c(=O)c7c(O)cc(C)c8c1c2c(c34)c(c78)c65 [Hypericin, 1,3,4,6,8,13-hexahydroxy-10,11-dimethylphenanthro[1,10,9,8-opqra]perylene-7,14-dione] | 195 ± 5 | lack of toxic effects or mortality | 0.30 ± 0.030 | 0.36 ± 0.019 | 0.25 ± 0.018 | 0.28 ± 0.020 | 100 ± 9 | −5 | 90 | 30 | – | –

— US6346282B1, “Neuroprotective composition for the prevention and/or treatment of nervous and behavioural alterations due to anxiety states or depression, comprising acetyl-L-carnitine and hypericin” (priority 1998, dated 2002)
